Measurements reported in EP0628545A1, “13,14-Dihydro-PGF2BETA and its isopropyl ester” (ONO PHARMACEUTICAL CO., LTD., priority 1993, dated 1994).

What was measured:
intraocular pressure = assay: Reducing effect of intraocular pressure after instillation into the rabbit eye (Experiment 1); assay type: in vivo, Japanese White rabbits; details: for Δ IOP, Reducing Effects of Intraocular Pressure: 50 µl instilled into left eye, vehicle-corrected, average of three samples; for Change in I.O.P.: area over 0 mmHg minus area under 0 mmHg of the IOP-time graph, 0-6 hr, minus = reduction
Procedure: For example, in a standard laboratory test the following data shown in Table 1 and 2 and in the accompanying Figure 1 were obtained. Average of the value of three samples are shown as each data. In the Figure reduction in intraocular pressure is plotted against time after administration for the compound of the invention and three comparison compounds.
Male Japanese White rabbits weighing about 3.0 kg were lightly held and the intraocular pressure was measured by Applanation Pneumatonograph after corneal anesthesia with instillation of 0.4% oxybuprocaine hydrochloride solution.
A 0.1% solution of a test compound was dissolved in vehicle which contains 2.5% conc. glycerol and 2.0% Polysorbate 80 in sterile purified water. The test solution at volume of 50 µl was instilled into left eye of each rabbit and the right eye remained untreated. As a control, the vehicle was instilled into left eye in a control group. Δ IOP (mmHg), which is an index of intraocular pressure-reducing effect, were calculated using below formula. IOP = (IOPt - IOP₀) - (IOPvt - IOPv0 ) [formula] IOPt : IOP at t hr after instillation of a test solution IOPvt : IOP at t hr after instillation of vehicle IOP₀ : IOP just before instillation of a test solution IOPv0 : IOP just before instillation of vehicle
Taking into consideration the continuous time of occurrence of the reduction effect and the intensity of the effect, the superiority of the compound of the present invention to the compared compound is clear. On the graph 1, the squares i.e. reducing effect of intraocular pressure, were calculated: That is, squares under 0 mmHg put minus and squares over 0 mmHg put plus, and the total squares are calculated and the values are shown in the Table 2.
On the graph of the intraocular pressure in course of time, area of the square (mmHg x hr) in elevation i.e. square over 0 mmHg and area of the square (mmHg x hr) in the reduction i.e. square under 0 mmHg were calculated and from the value of the former was subtracted the one of the latter. The minus-resulted value means reduction of intraocular pressure and the plus-resulted value means elevation of intraocular pressure.

[1] = Detection of compound and metabolite in eye tissue homogenates by liquid chromatography-mass spectrum after eye drop administration (Experiment 2); assay type: in vivo, Japanese White rabbits; details: 1 Hr after the last administration; for detection in the homogenates of aqueous humor, cornea or iris/ciliary body: eye drop solution of Example 1 three times every 5 mins in saccus conjunctivae
Procedure: Japanese White rabbits weighing 3.0 kg were used. Eye drop solution of Example 1 was administered three times every 5 mins in saccus conjunctivae. 1 Hr after the last administration, aqueous humor, cornea and iris/ciliary body were collected and homogenized respectively. The homogenates were measured by liquid chromatography-Mass spectrum.

[2] = 0 hr after administration (baseline), 0.1% solution
[3] = 1 hr after administration, 0.1% solution
[4] = 2 hr after administration, 0.1% solution
[5] = 4 hr after administration, 0.1% solution
[6] = 6 hr after administration, 0.1% solution

## CCCCC[C@H](O)/C=C/[C@@H]1[C@@H](C/C=C\CCCC(=O)OC(C)C)[C@@H](O)C[C@@H]1O [Compared compound 1, 11-epi-PGF2α isopropyl ester]
Intraocular pressure; [2]
  Δ IOP, Reducing Effects of Intraocular Pressure: 0 mm Hg
Intraocular pressure; 0.1% solution
  continued elevation of the intraocular pressure: continuous elevation till 6 hrs
  initial elevation of the intraocular pressure: showed initial elevation
  time after administration at which the reducing effect appeared: > 6 h
  Change in I.O.P.: 8.95 mmHg x hr
Intraocular pressure; [3]
  Δ IOP, Reducing Effects of Intraocular Pressure: 3.5 mm Hg
Intraocular pressure; [4]
  Δ IOP, Reducing Effects of Intraocular Pressure: 1.5 mm Hg
Intraocular pressure; [5]
  Δ IOP, Reducing Effects of Intraocular Pressure: 1.5 mm Hg
Intraocular pressure; [6]
  Δ IOP, Reducing Effects of Intraocular Pressure: 0.2 mm Hg

## CCCCC[C@H](O)/C=C/[C@@H]1[C@@H](C/C=C\CCCC(=O)OC(C)C)[C@@H](O)C[C@H]1O [Compared compound 2, PGF2α isopropyl ester]
Intraocular pressure; [2]
  Δ IOP, Reducing Effects of Intraocular Pressure: 0 mm Hg
Intraocular pressure; 0.1% solution
  initial elevation of the intraocular pressure: extremely strong initial elevation
  time after administration at which the reducing effect appeared: ~4 h
  Change in I.O.P.: 11.36 mmHg x hr
Intraocular pressure; [3]
  Δ IOP, Reducing Effects of Intraocular Pressure: 13.7 mm Hg
Intraocular pressure; [4]
  Δ IOP, Reducing Effects of Intraocular Pressure: 3.7 mm Hg
Intraocular pressure; [5]
  Δ IOP, Reducing Effects of Intraocular Pressure: -1 mm Hg
Intraocular pressure; [6]
  Δ IOP, Reducing Effects of Intraocular Pressure: -5.8 mm Hg

## CCCCC[C@H](O)CC[C@@H]1[C@@H](C/C=C\CCCC(=O)OC)[C@@H](O)C[C@H]1O [Compared compound 3, 13,14-dihydro-PGF2α methyl ester]
Intraocular pressure; [2]
  Δ IOP, Reducing Effects of Intraocular Pressure: 0 mm Hg
Intraocular pressure; 0.1% solution
  initial elevation of the intraocular pressure: showed initial elevation
  time after administration at which the reducing effect appeared: ~4 h
  Change in I.O.P.: -4.35 mmHg x hr
Intraocular pressure; [3]
  Δ IOP, Reducing Effects of Intraocular Pressure: 3.3 mm Hg
Intraocular pressure; [4]
  Δ IOP, Reducing Effects of Intraocular Pressure: -1.3 mm Hg
Intraocular pressure; [5]
  Δ IOP, Reducing Effects of Intraocular Pressure: -0.7 mm Hg
Intraocular pressure; [6]
  Δ IOP, Reducing Effects of Intraocular Pressure: -4.3 mm Hg

## CCCCC[C@H](O)CC[C@@H]1[C@@H](C/C=C\CCCC(=O)O)[C@H](O)C[C@H]1O [Example 2, 13,14-dihydro-prostaglandin F2β]
[1]
  detection in the homogenates of aqueous humor, cornea or iris/ciliary body: detected

## CCCCC[C@H](O)CC[C@@H]1[C@@H](C/C=C\CCCC(=O)OC(C)C)[C@H](O)C[C@H]1O [Example 1, 13,14-dihydro-PGF2β isopropyl ester]
[1]; eye drop solution of Example 1
  hydrolysis on cornea: hydrolysed into the compound of Example 2
[1]
  detection in the homogenates of aqueous humor, cornea or iris/ciliary body: not detected
Intraocular pressure; [2]
  Δ IOP, Reducing Effects of Intraocular Pressure: 0 mm Hg
Intraocular pressure; 0.1% solution
  initial elevation of the intraocular pressure: did not show initial elevation
  maximum reduction of IOP: 5.5 mmHg
  time after administration at which the reducing effect appeared: 1 h
  Change in I.O.P.: -26.35 mmHg x hr
Intraocular pressure; [3]
  Δ IOP, Reducing Effects of Intraocular Pressure: -1.8 mm Hg
Intraocular pressure; [4]
  Δ IOP, Reducing Effects of Intraocular Pressure: -5.5 mm Hg
Intraocular pressure; [5]
  Δ IOP, Reducing Effects of Intraocular Pressure: -5.5 mm Hg
Intraocular pressure; [6]
  Δ IOP, Reducing Effects of Intraocular Pressure: -5.3 mm Hg
Intraocular pressure; after instillation of 0.1% solution
  bulbar and palpebral conjunctival hyperemia: not observed
Intraocular pressure; at 2 hrs after administration, same level maintained till 6 hrs
  activity (reduction of intraocular pressure) reached: 5.5 mmHg
